Data: US20080293721A1, “ARYLTHIOACETAMIDE CARBOXYLATE DERIVATIVES AS FKBP INHIBITORS FOR THE TREATMENT OF NEUROLOGICAL DISEASES” (Burnham Institute for Medical Research, priority 2007, published 2008)

Legend:
[1] = target: FKBP12 (Homo sapiens, UniProt P62942); assay: secondary assays with isothermal titration calorimetry and 2D NMR (FIGS. 2, 3); type: binding
Description: The ligand concentration chart refers to the compound having the formula VIII (i.e., p-toluoylthioacetylmorpholine) used as the ligand.

[2] = system: primary rat cortical neurons; assay: neurite outgrow with primary rat cortical neurons (FIGS. 4, 5; Sholl analysis); type: cell-based; conditions: FIG. 4
Description: FIGS. 4 and 5 show the effect of FKBP12 ligands on neurite outgrow with primary rat cortical neurons.

Sequence of FKBP12 (P62942 whole entry, species assumed): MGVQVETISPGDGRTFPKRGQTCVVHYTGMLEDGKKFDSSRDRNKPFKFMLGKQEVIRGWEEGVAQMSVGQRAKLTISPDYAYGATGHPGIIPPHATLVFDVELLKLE

Kd [1] [µM]	Structure (SMILES)	effect on neurite outgrow [2]
4	Cc1ccc(SCC(=O)N2CCOCC2)cc1 [VIII]	
	CC(C)c1ccc(SCC(=O)N2CCOCC2C(=O)OCCCc2cccnc2)cc1 (centres unmarked) [Compound VII, 3-(pyridine-3-yl)propyl 4-(2-(4-isopropylphenylthio)acetyl)morpholine-3-carboxylate]	particularly substantial
